Experimental data reported in PubChem BioAssay (NCI).
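Grown in 96-well plates, cells were treated for 48 hours with each compound at five concentrations. Insufficient inhibition: endpoint recorded as highest concentration tested. The concentration for 50% growth inhibition is given as GI50. TGI marks complete inhibition of growth.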

Experiments:
Test in all cases: inhibition of tumour cell growth, NCI panel, 48 h
NCI-H23 lung = tested on: NCI-H23 lung
U251 CNS = tested on: U251 CNS
HT29 colon = tested on: HT29 colon
ACHN renal = tested on: ACHN renal
HOP-92 NSCLC = tested on: HOP-92 NSCLC
A498 renal = tested on: A498 renal
TK-10 renal = tested on: TK-10 renal
UO-31 renal = tested on: UO-31 renal
SW-620 colon = tested on: SW-620 colon
LOX IMVI melanoma = tested on: LOX IMVI melanoma

SMILES	TGI (NCI-H23 lung) [µM]	TGI (U251 CNS) [µM]	TGI (HT29 colon) [µM]	TGI (ACHN renal) [µM]	TGI (HOP-92 NSCLC) [µM]	TGI (A498 renal) [µM]	TGI (TK-10 renal) [µM]	TGI (UO-31 renal) [µM]	TGI (SW-620 colon) [µM]	GI50 (NCI-H23 lung) [µM]	GI50 (LOX IMVI melanoma) [µM]	TGI (LOX IMVI melanoma) [µM]	GI50 (U251 CNS) [µM]	GI50 (HT29 colon) [µM]	GI50 (ACHN renal) [µM]	GI50 (HOP-92 NSCLC) [µM]	GI50 (SW-620 colon) [µM]	GI50 (TK-10 renal) [µM]	GI50 (UO-31 renal) [µM]	GI50 (A498 renal) [µM]
CN(C)CC(/C(Cc1ccccc1)=N\NC(=O)C[n+]1ccccc1)c1ccccc1 (stereo not drawn)	> 100	> 100	> 100	> 100	> 100	> 100	> 100	> 100												
O=C(O)c1ccccc1Cc1ccco1	> 100	> 100	> 100	> 100	> 100	> 100	> 100	> 100	> 100											
CC/C(Cc1ccccc1)=C(\c1ccc(OCCN2CCCCCC2)cc1)c1ccc(OC(=O)NCc2ccccc2)cc1	13.8	5.48	3.53	5.34	9.93		16	7.98	2.49	5.89	0.924	1.75	1.77	1.34	1.49	3	1.16	8.2	2.03	
COc1cc(C(=O)OCCCCCCCCCCC[P+](c2ccccc2)(c2ccccc2)c2ccccc2)ccc1O				2.99		5.23	4.15	3.17							1.46			1.65	1.69	1.84
N=C(c1ccccc1)N(c1ccccc1)c1ccccc1	> 100	> 100	> 100				> 100	> 100	> 100			> 100								
CC(=O)C1=C(O)C=C2Oc3c(C(=O)/C=C/c4cc(C(F)(F)F)cc(C(F)(F)F)c4)c(O)c(C)c(O)c3[C@]2(C)C1=O	2.87	1.7	1.71	2.26		1.42	8.23	2.05	2.19	0.528	0.511	1.89	0.532	0.535	0.552		0.553	0.587	0.438	0.457
CC1=NN(C(=O)c2ccccc2O)C(=O)/C1=C/c1ccc([N+](=O)[O-])cc1	4.77	> 100	> 100	> 100	> 100		> 100	1.88	> 100	0.654	0.854	> 40.9	0.516	4.22	0.545	0.609	3.15	4.83	0.358	
N#Cc1cccc(N2C(=O)c3c(c(-c4ccccc4)c(-c4ccc(Sc5ccc(-c6c(-c7ccccc7)c7c(c(-c8ccccc8)c6-c6ccccc6)C(=O)N(c6cccc(C#N)c6)C7=O)cc5)cc4)c(-c4ccccc4)c3-c3ccccc3)C2=O)c1	> 100	54.2	> 100	> 100	99.4		> 100	> 100	> 100			> 100								
Cc1ccc(C(=O)O/N=C2/CCCC/C2=C\c2ccccc2)cc1	> 100	> 100	> 100	> 100	> 100		> 100	31.5	> 100			44.2								
C1=C(c2ccccc2)CN(c2ccccc2)OC1	> 100	> 100	> 100	> 100			> 100	> 100	> 100			> 100								
Nc1ncnc2c1ncn2C1OC(COP(=O)(O)CP(=O)(O)O)C(O)C1O (stereo not drawn)	> 100	> 100	> 100	> 100		> 100	> 100	> 100	> 100			> 100								
COc1cc(-c2nn3c(/C=C4/C(=O)Nc5ccccc54)c(-c4ccc(C)cc4)nc3s2)cc(OC)c1OC	25.3	3.43		23.7	8.99	36.7	4.38	> 100		4.54			1.59		4.98	0.42		1.69	8.44	7.28
O=C1OC(=O)c2c1c(-c1ccccc1)cn2-c1ccc(Cl)cc1	> 100	> 100	> 100	> 100	> 100		> 100	> 100	> 100			> 100								
C#CCC[C@@H]1O[C@@]1(C)CC/C=C(\C)CC/C=C/C=O	> 100	39.3	> 100	> 100	63.5			> 100	51.4			35.2								
CC(C)=CCN=C(N)N	> 100	> 100	> 100	> 100	> 100		> 100	> 100	> 100			> 100								
COc1c2c(c3c(c1C1OC(C)[C@@H](C)O1)CC(C)(C)O3)C(=O)c1ccccc1C2=O (stereo partly drawn)	> 100	> 100	> 100	> 100	89.7		> 100	> 100	63.6			28.6								
O=C(Nc1ccc(Cl)cc1Cl)c1ccc(NC2=C(Cl)C(=O)N(Cc3ccccc3)C2=O)cc1		24.5		33.7	26.7	79.7	81.9	> 100	> 100		6.6	19.1	12.2		18.9	13.1	34	25.5	3.56	31.3
CC[P+](C)(Cc1ccccc1)c1ccccc1 (stereo not drawn)	> 100	> 100	> 100	> 100		> 100	> 100	> 100	> 100			> 100								
O=C(c1ccccc1)c1c(NCC(O)CN2CCCC2)n(Cc2ccccc2)c(=O)n(Cc2ccccc2)c1=O (stereo not drawn)	44.1	29.6	33.6	54.7		12.7	41.6	40.2	30.4	20	15.7	29.4	16.1	17.3	22.3		15.6	19.3	18.8	2.3
Nc1nc(CCC(=O)Nc2cccc(C(F)(F)F)c2)cc(-c2cccc3ccccc23)n1	> 100	> 100	> 100	> 100		> 100	> 100	> 100	> 100			> 100								
CC(C)(C)OC(=O)NCCNC1=CC(=O)c2nc3ccccc3c3ccnc1c23	46.8	65	43.8	76.8	42.5	29.2	99.7	> 100	37.4	17.1			18.8	17.9	21.5	17.9	15.1	32.4	28.8	0.101
CCC1(C)NN=c2s/c(=C/c3ccc(OC)cc3)c(=O)n2N1 (stereo not drawn)	> 100	> 100	> 100	> 100	96.3		> 100	> 100	> 100			> 100								
FC(F)(F)C1(Cl)C(c2ccccc2)=C1c1ccccc1	29.3	28.2	29.3	30.2	28.4		35.4	31.9	27			23.8								
NNC(=S)N/N=C(\CCCC(=O)NCCc1ccccc1)CC(=O)c1ccccc1	> 100	> 100	> 100	> 100	> 100	> 100	> 100	> 100	> 100											
CN(C)c1ccc2c(c1)C(=O)N(OS(=O)(=O)c1ccc([N+](=O)[O-])cc1)C2=O	64	35.1	47.6	59.9	> 10	> 100	> 100	60.9	46.8											
O=C(O)CN(c1ccccc1)S(=O)(=O)c1ccc(NC(=O)c2ccccc2)cc1	> 100	> 100		> 100	> 100	> 100	> 100	> 100	> 100			> 100								
COc1ccc(/C=C2\CN(C)Cc3c2nc(N)nc3-c2ccc(OC)cc2)cc1	> 100	> 100		> 100		> 100	> 100	> 100	> 100			> 100								
COC(=O)Cc1cc(OC)c(OC)cc1Br	> 100	> 100	> 100	> 100	> 100	> 100	> 100	> 100	> 100											
CCOc1ccc(NC(=O)CC2SC(=Nc3ccc(Cl)cc3)NC2=O)cc1 (stereo not drawn)	> 100		> 100	> 100		> 100	> 100	> 100	> 100			> 100								
COc1cc2c(cc1O)C=NCC2	> 100	> 100		> 100	> 100	> 100	> 100	> 100	> 100											
